# Results: PubChem BioAssay (NCI)
#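 These data come from cells grown in 96-well plates and exposed to compound for 48 hours at five concentrations. GI50 = concentration required for 50% inhibition of growth. Definition used: TGI = concentration required for complete inhibition of growth.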
# Columns and labels:
# Assay in all cases: inhibition of tumour cell growth, NCI panel, 48 h
# NCI-H460 lung = system: NCI-H460 lung
# SNB-75 CNS = system: SNB-75 CNS
# IGROV1 ovarian = system: IGROV1 ovarian
# HS 578T breast = system: HS 578T breast
# SF-539 CNS = system: SF-539 CNS
# HCT-116 colon = system: HCT-116 colon
# T-47D breast = system: T-47D breast
# BT-549 breast = system: BT-549 breast
# SK-MEL-28 melanoma = system: SK-MEL-28 melanoma
# SR leukemia = system: SR leukemia
Compound,GI50 (NCI-H460 lung) [nM],TGI (NCI-H460 lung) [µM],GI50 (SNB-75 CNS) [nM],TGI (SNB-75 CNS) [µM],GI50 (IGROV1 ovarian) [nM],TGI (IGROV1 ovarian) [µM],GI50 (HS 578T breast) [nM],TGI (HS 578T breast) [µM],GI50 (SF-539 CNS) [nM],TGI (SF-539 CNS) [µM],GI50 (HCT-116 colon) [nM],TGI (HCT-116 colon) [µM],GI50 (T-47D breast) [nM],TGI (T-47D breast) [µM],GI50 (BT-549 breast) [nM],TGI (BT-549 breast) [µM],GI50 (SK-MEL-28 melanoma) [nM],TGI (SK-MEL-28 melanoma) [µM],GI50 (SR leukemia) [nM],TGI (SR leukemia) [nM]
COC1C(CO)OC(n2c3ccccc3c3c4c(c5c6ccccc6[nH]c5c32)C(=O)NC4=O)C(O)C1O (configuration not stated),848,6.61,158,3.85,84.4,3.49,180,0.757,< 10,0.0359,16,0.146,< 12.6,0.117,120,1.85,156,8.49,,
COc1cc2nccc(Oc3ccc(NC(=O)NC4CC4)c(Cl)c3)c2cc1C(N)=O,39900,> 100,2820,36.8,30600,> 100,14500,> 86.9,536,40,25400,> 100,14400,> 100,5170,27.2,41300,> 100,30500,> 100000
CCOC(=O)[C@@H](C)C[C@H](Cc1ccccc1)NC(=O)c1nc([C@@H](C[C@H](C(C)C)N(C)C(=O)[C@@H](NC(=O)[C@H]2CCCCN2C)C(C)C)OC(C)=O)sc1CCOCc1ccccc1,42.5,1.4,43.3,2.76,99.5,2.81,83,2.85,57.1,0.39,47.3,1.23,72.1,> 11.1,79.2,0.918,540,2.72,31.3,1870
CCOC(=O)c1ccc(Nc2sc(C(=O)c3ccc(Br)cc3)c(N)c2C#N)cc1,924,> 100,496,7.61,,> 100,1480,> 100,1070,> 100,732,> 100,2850,> 100,> 100000,> 100,4810,> 100,658,> 45500
O=C(c1ccco1)c1nc2cc(C(F)(F)F)ccc2nc1C(F)(F)F,> 100000,> 100,18900,62.7,> 100000,> 100,> 100000,> 100,> 100000,> 100,> 100000,> 100,72000,> 100,> 100000,> 100,> 100000,> 100,40500,> 100000
CCCCCCCC/C=C/CCCCCCCC1=NC(C)(C)CN1CC(C)O (configuration not stated),1940,3.64,1810,4.23,1450,2.84,1900,4.62,1700,3.09,1840,3.32,2030,4.58,2840,15.7,1740,3.19,700,2650
